Laboratory results reported in ChEMBL document CHEMBL1147422, “Synthesis and antitumor activity of 10-substituted benzylidene anthrone” (2004).

system: P388; test: Inhibition ratio against P-388 cancer cell growth at a concentration of 10e-5 mol/L; type: functional, Mus musculus

Row | Structure (SMILES) | Ratio
1 | COc1ccc(C=C2c3ccccc3C(=O)c3ccccc32)cc1 | 72.5
2 | O=C1c2ccccc2C(=Cc2ccc(O)cc2)c2ccccc21 | 72
3 | COc1ccccc1C=C1c2ccccc2C(=O)c2ccccc21 | 76.1
4 | O=C1c2ccccc2C(=Cc2ccccc2Cl)c2ccccc21 | 23.7
5 | COc1cccc(C=C2c3ccccc3C(=O)c3ccccc32)c1 | 48.2
6 | Cc1cccc(C=C2c3ccccc3C(=O)c3ccccc32)c1 | 7.2
7 | O=C1c2ccccc2C(=Cc2ccccc2O)c2ccccc21 | 88.2
8 | O=C1c2ccccc2C(=Cc2ccc(Cl)cc2)c2ccccc21 | 36
9 | O=C1c2ccccc2C(=Cc2cccc([N+](=O)[O-])c2)c2ccccc21 | 55.8
10 | O=C1c2ccccc2C(=Cc2ccccc2)c2ccccc21 | 56.2
11 | COc1ccc(C=C2c3ccccc3C(=O)c3ccccc32)cc1OC | 80.2
12 | Cc1ccccc1C=C1c2ccccc2C(=O)c2ccccc21 | 42.4
13 | O=C1c2ccccc2C(=Cc2cccc(Cl)c2)c2ccccc21 | 39.4
14 | Cc1ccc(C=C2c3ccccc3C(=O)c3ccccc32)cc1 | 42.4
15 | O=C1c2ccccc2C(=Cc2ccc(F)cc2)c2ccccc21 | 31.4

system: P388; test: Inhibition ratio against P-388 cancer cell growth at a concentration of 10e-6 mol/L; type: functional, Mus musculus

Row | Structure (SMILES) | Ratio
16 | COc1ccc(C=C2c3ccccc3C(=O)c3ccccc32)cc1 | 76.5
17 | O=C1c2ccccc2C(=Cc2ccc(O)cc2)c2ccccc21 | 41.6
18 | COc1ccccc1C=C1c2ccccc2C(=O)c2ccccc21 | 55.4
19 | O=C1c2ccccc2C(=Cc2ccccc2Cl)c2ccccc21 | 0
20 | COc1cccc(C=C2c3ccccc3C(=O)c3ccccc32)c1 | 27.2
21 | Cc1cccc(C=C2c3ccccc3C(=O)c3ccccc32)c1 | 0
22 | O=C1c2ccccc2C(=Cc2ccccc2O)c2ccccc21 | 65.8
23 | O=C1c2ccccc2C(=Cc2ccc(Cl)cc2)c2ccccc21 | 3.9
24 | O=C1c2ccccc2C(=Cc2cccc([N+](=O)[O-])c2)c2ccccc21 | 23.9
25 | O=C1c2ccccc2C(=Cc2ccccc2)c2ccccc21 | 17.8
26 | COc1ccc(C=C2c3ccccc3C(=O)c3ccccc32)cc1OC | 56
27 | Cc1ccccc1C=C1c2ccccc2C(=O)c2ccccc21 | 24.9
28 | O=C1c2ccccc2C(=Cc2cccc(Cl)c2)c2ccccc21 | 11.9
29 | Cc1ccc(C=C2c3ccccc3C(=O)c3ccccc32)cc1 | 48.6
30 | O=C1c2ccccc2C(=Cc2ccc(F)cc2)c2ccccc21 | 18.4

system: A549; test: Inhibition ratio against A-549 cancer cell growth at a concentration of 10e-5 mol/L; type: functional, Homo sapiens

Row | Structure (SMILES) | Ratio
31 | COc1ccc(C=C2c3ccccc3C(=O)c3ccccc32)cc1 | 84.7
32 | O=C1c2ccccc2C(=Cc2ccc(O)cc2)c2ccccc21 | 87
33 | COc1ccccc1C=C1c2ccccc2C(=O)c2ccccc21 | 81.7
34 | O=C1c2ccccc2C(=Cc2ccccc2Cl)c2ccccc21 | 53
35 | COc1cccc(C=C2c3ccccc3C(=O)c3ccccc32)c1 | 92.5
36 | Cc1cccc(C=C2c3ccccc3C(=O)c3ccccc32)c1 | 18.2
37 | O=C1c2ccccc2C(=Cc2ccccc2O)c2ccccc21 | 94.8
38 | O=C1c2ccccc2C(=Cc2ccc(Cl)cc2)c2ccccc21 | 87.3
39 | O=C1c2ccccc2C(=Cc2cccc([N+](=O)[O-])c2)c2ccccc21 | 91.8
40 | O=C1c2ccccc2C(=Cc2ccccc2)c2ccccc21 | 79.9
41 | COc1ccc(C=C2c3ccccc3C(=O)c3ccccc32)cc1OC | 92.8
42 | Cc1ccccc1C=C1c2ccccc2C(=O)c2ccccc21 | 84.8
43 | O=C1c2ccccc2C(=Cc2cccc(Cl)c2)c2ccccc21 | 92
44 | Cc1ccc(C=C2c3ccccc3C(=O)c3ccccc32)cc1 | 91.8
45 | O=C1c2ccccc2C(=Cc2ccc(F)cc2)c2ccccc21 | 88.2

system: A549; test: Inhibition ratio against A-549 cancer cell growth at a concentration of 10e-6 mol/L; type: functional, Homo sapiens

Row | Structure (SMILES) | Ratio
46 | COc1ccc(C=C2c3ccccc3C(=O)c3ccccc32)cc1 | 87
47 | O=C1c2ccccc2C(=Cc2ccc(O)cc2)c2ccccc21 | 87.2
48 | COc1ccccc1C=C1c2ccccc2C(=O)c2ccccc21 | 85.7
49 | O=C1c2ccccc2C(=Cc2ccccc2Cl)c2ccccc21 | 0.3
50 | COc1cccc(C=C2c3ccccc3C(=O)c3ccccc32)c1 | 25.1
51 | Cc1cccc(C=C2c3ccccc3C(=O)c3ccccc32)c1 | 0
52 | O=C1c2ccccc2C(=Cc2ccccc2O)c2ccccc21 | 89.3
53 | O=C1c2ccccc2C(=Cc2ccc(Cl)cc2)c2ccccc21 | 41.9
54 | O=C1c2ccccc2C(=Cc2cccc([N+](=O)[O-])c2)c2ccccc21 | 12.4
55 | O=C1c2ccccc2C(=Cc2ccccc2)c2ccccc21 | 9.8
56 | COc1ccc(C=C2c3ccccc3C(=O)c3ccccc32)cc1OC | 87
57 | Cc1ccccc1C=C1c2ccccc2C(=O)c2ccccc21 | 18.5
58 | O=C1c2ccccc2C(=Cc2cccc(Cl)c2)c2ccccc21 | 62.9
59 | Cc1ccc(C=C2c3ccccc3C(=O)c3ccccc32)cc1 | 90
60 | O=C1c2ccccc2C(=Cc2ccc(F)cc2)c2ccccc21 | 56.5

system: A549; test: Inhibition ratio against A-549 cancer cell growth at a concentration of 10e-7 mol/L; type: functional, Homo sapiens

Row | Structure (SMILES) | Ratio
61 | COc1ccc(C=C2c3ccccc3C(=O)c3ccccc32)cc1 | 85.4
62 | O=C1c2ccccc2C(=Cc2ccc(O)cc2)c2ccccc21 | 88.7
63 | COc1ccccc1C=C1c2ccccc2C(=O)c2ccccc21 | 86.8
64 | O=C1c2ccccc2C(=Cc2ccccc2Cl)c2ccccc21 | 6
65 | COc1cccc(C=C2c3ccccc3C(=O)c3ccccc32)c1 | 38.1
66 | Cc1cccc(C=C2c3ccccc3C(=O)c3ccccc32)c1 | 0
67 | O=C1c2ccccc2C(=Cc2ccccc2O)c2ccccc21 | 83
68 | O=C1c2ccccc2C(=Cc2ccc(Cl)cc2)c2ccccc21 | 33.6
69 | O=C1c2ccccc2C(=Cc2cccc([N+](=O)[O-])c2)c2ccccc21 | 7.7
70 | O=C1c2ccccc2C(=Cc2ccccc2)c2ccccc21 | 1
71 | COc1ccc(C=C2c3ccccc3C(=O)c3ccccc32)cc1OC | 90.6
72 | Cc1ccccc1C=C1c2ccccc2C(=O)c2ccccc21 | 0
73 | O=C1c2ccccc2C(=Cc2cccc(Cl)c2)c2ccccc21 | 5.7
74 | Cc1ccc(C=C2c3ccccc3C(=O)c3ccccc32)cc1 | 92.7
75 | O=C1c2ccccc2C(=Cc2ccc(F)cc2)c2ccccc21 | 18.5

system: P388; test: Inhibition ratio against P-388 cancer cell growth at a concentration of 10e-7 mol/L; type: functional, Mus musculus

Row | Structure (SMILES) | Ratio
76 | COc1ccc(C=C2c3ccccc3C(=O)c3ccccc32)cc1 | 64.3
77 | O=C1c2ccccc2C(=Cc2ccc(O)cc2)c2ccccc21 | 27.1
78 | COc1ccccc1C=C1c2ccccc2C(=O)c2ccccc21 | 47
79 | O=C1c2ccccc2C(=Cc2ccccc2Cl)c2ccccc21 | 0
80 | COc1cccc(C=C2c3ccccc3C(=O)c3ccccc32)c1 | 7.1
81 | Cc1cccc(C=C2c3ccccc3C(=O)c3ccccc32)c1 | 0
82 | O=C1c2ccccc2C(=Cc2ccccc2O)c2ccccc21 | 44.9
83 | O=C1c2ccccc2C(=Cc2ccc(Cl)cc2)c2ccccc21 | 2.8
84 | O=C1c2ccccc2C(=Cc2cccc([N+](=O)[O-])c2)c2ccccc21 | 22.1
85 | O=C1c2ccccc2C(=Cc2ccccc2)c2ccccc21 | 0
86 | COc1ccc(C=C2c3ccccc3C(=O)c3ccccc32)cc1OC | 53.6
87 | Cc1ccccc1C=C1c2ccccc2C(=O)c2ccccc21 | 8
88 | O=C1c2ccccc2C(=Cc2cccc(Cl)c2)c2ccccc21 | 19.3
89 | Cc1ccc(C=C2c3ccccc3C(=O)c3ccccc32)cc1 | 49.3
90 | O=C1c2ccccc2C(=Cc2ccc(F)cc2)c2ccccc21 | 10.3

system: A549; test: Inhibition ratio against A-549 cancer cell growth at a concentration of 10e-8 mol/L; type: functional, Homo sapiens

Row | Structure (SMILES) | Ratio
91 | COc1ccc(C=C2c3ccccc3C(=O)c3ccccc32)cc1 | 84.8
92 | O=C1c2ccccc2C(=Cc2ccc(O)cc2)c2ccccc21 | 60
93 | COc1ccccc1C=C1c2ccccc2C(=O)c2ccccc21 | 66.3
94 | O=C1c2ccccc2C(=Cc2ccccc2Cl)c2ccccc21 | 5.9
95 | COc1cccc(C=C2c3ccccc3C(=O)c3ccccc32)c1 | 6.2
96 | Cc1cccc(C=C2c3ccccc3C(=O)c3ccccc32)c1 | 0
97 | O=C1c2ccccc2C(=Cc2ccccc2O)c2ccccc21 | 85.2
98 | O=C1c2ccccc2C(=Cc2ccc(Cl)cc2)c2ccccc21 | 41.7
99 | O=C1c2ccccc2C(=Cc2cccc([N+](=O)[O-])c2)c2ccccc21 | 13.2
100 | O=C1c2ccccc2C(=Cc2ccccc2)c2ccccc21 | 4.4
101 | COc1ccc(C=C2c3ccccc3C(=O)c3ccccc32)cc1OC | 81.7
102 | Cc1ccccc1C=C1c2ccccc2C(=O)c2ccccc21 | 5.7
103 | O=C1c2ccccc2C(=Cc2cccc(Cl)c2)c2ccccc21 | 12.5
104 | Cc1ccc(C=C2c3ccccc3C(=O)c3ccccc32)cc1 | 84.7
105 | O=C1c2ccccc2C(=Cc2ccc(F)cc2)c2ccccc21 | 49.2

system: A549; test: Inhibition ratio against A-549 cancer cell growth at a concentration of 10e-4 mol/L; type: functional, Homo sapiens

Row | Structure (SMILES) | Ratio
106 | COc1ccc(C=C2c3ccccc3C(=O)c3ccccc32)cc1 | 90
107 | O=C1c2ccccc2C(=Cc2ccc(O)cc2)c2ccccc21 | 92.9
108 | COc1ccccc1C=C1c2ccccc2C(=O)c2ccccc21 | 89.3
109 | O=C1c2ccccc2C(=Cc2ccccc2Cl)c2ccccc21 | 89.9
110 | COc1cccc(C=C2c3ccccc3C(=O)c3ccccc32)c1 | 95.8
111 | Cc1cccc(C=C2c3ccccc3C(=O)c3ccccc32)c1 | 93
112 | O=C1c2ccccc2C(=Cc2ccccc2O)c2ccccc21 | 96.3
113 | O=C1c2ccccc2C(=Cc2ccc(Cl)cc2)c2ccccc21 | 96
114 | O=C1c2ccccc2C(=Cc2cccc([N+](=O)[O-])c2)c2ccccc21 | 96
115 | O=C1c2ccccc2C(=Cc2ccccc2)c2ccccc21 | 95.4
116 | COc1ccc(C=C2c3ccccc3C(=O)c3ccccc32)cc1OC | 95.7
117 | Cc1ccccc1C=C1c2ccccc2C(=O)c2ccccc21 | 90.9
118 | O=C1c2ccccc2C(=Cc2cccc(Cl)c2)c2ccccc21 | 97.1
119 | Cc1ccc(C=C2c3ccccc3C(=O)c3ccccc32)cc1 | 95.2
120 | O=C1c2ccccc2C(=Cc2ccc(F)cc2)c2ccccc21 | 96.8

system: P388; test: Inhibition ratio against P-388 cancer cell growth at a concentration of 10e-4 mol/L; type: functional, Mus musculus

Row | Structure (SMILES) | Ratio
121 | COc1ccc(C=C2c3ccccc3C(=O)c3ccccc32)cc1 | 76.7
122 | O=C1c2ccccc2C(=Cc2ccc(O)cc2)c2ccccc21 | 100
123 | COc1ccccc1C=C1c2ccccc2C(=O)c2ccccc21 | 82.2
124 | O=C1c2ccccc2C(=Cc2ccccc2Cl)c2ccccc21 | 58.4
125 | COc1cccc(C=C2c3ccccc3C(=O)c3ccccc32)c1 | 96
126 | Cc1cccc(C=C2c3ccccc3C(=O)c3ccccc32)c1 | 53.3
127 | O=C1c2ccccc2C(=Cc2ccccc2O)c2ccccc21 | 95.6
128 | O=C1c2ccccc2C(=Cc2ccc(Cl)cc2)c2ccccc21 | 70
129 | O=C1c2ccccc2C(=Cc2cccc([N+](=O)[O-])c2)c2ccccc21 | 89.8
130 | O=C1c2ccccc2C(=Cc2ccccc2)c2ccccc21 | 97.8
131 | COc1ccc(C=C2c3ccccc3C(=O)c3ccccc32)cc1OC | 95.7
132 | Cc1ccccc1C=C1c2ccccc2C(=O)c2ccccc21 | 84.1
133 | O=C1c2ccccc2C(=Cc2cccc(Cl)c2)c2ccccc21 | 89.2
134 | Cc1ccc(C=C2c3ccccc3C(=O)c3ccccc32)cc1 | 69
135 | O=C1c2ccccc2C(=Cc2ccc(F)cc2)c2ccccc21 | 83.3

system: P388; test: Inhibition ratio against P-388 cancer cell growth at a concentration of 10e-8 mol/L; type: functional, Mus musculus

Row | Structure (SMILES) | Ratio
136 | COc1ccc(C=C2c3ccccc3C(=O)c3ccccc32)cc1 | 75.5
137 | O=C1c2ccccc2C(=Cc2ccc(O)cc2)c2ccccc21 | 42.8
138 | COc1ccccc1C=C1c2ccccc2C(=O)c2ccccc21 | 32.7
139 | O=C1c2ccccc2C(=Cc2ccccc2Cl)c2ccccc21 | 0
140 | COc1cccc(C=C2c3ccccc3C(=O)c3ccccc32)c1 | 1
141 | Cc1cccc(C=C2c3ccccc3C(=O)c3ccccc32)c1 | 0
142 | O=C1c2ccccc2C(=Cc2ccccc2O)c2ccccc21 | 38.5
143 | O=C1c2ccccc2C(=Cc2ccc(Cl)cc2)c2ccccc21 | 4.4
144 | O=C1c2ccccc2C(=Cc2cccc([N+](=O)[O-])c2)c2ccccc21 | 30.7
145 | O=C1c2ccccc2C(=Cc2ccccc2)c2ccccc21 | 2.7
146 | COc1ccc(C=C2c3ccccc3C(=O)c3ccccc32)cc1OC | 50.9
147 | Cc1ccccc1C=C1c2ccccc2C(=O)c2ccccc21 | 13.1
148 | O=C1c2ccccc2C(=Cc2cccc(Cl)c2)c2ccccc21 | 10.9
149 | Cc1ccc(C=C2c3ccccc3C(=O)c3ccccc32)cc1 | 56.5
150 | O=C1c2ccccc2C(=Cc2ccc(F)cc2)c2ccccc21 | 5.2
